In brackets after ≈: the same amount, converted by molar mass.

For the data set the following is noted: buffer; pH 7.4; 200.0 µM.
The compound `CS(=O)(=O)N1CCc2nc(-c3ccccc3)sc2C1` had a kinetic solubility of 10.4 µg/mL (≈ 35.3 µM).
The figure for `CN(C)c1ccc(CC2C(=O)Nc3ccccc32)cc1` (centres undefined) is 37.3 µg/mL (≈ 140 µM); for `CC(=O)c1cccc(NC(=O)CN2C(=O)c3ccccc3C2=O)c1` it is 13.9 µg/mL (≈ 43.1 µM); for `Cc1cc2nccc(-c3ccncc3)n2n1` it is > 31.5 µg/mL.
On to `CCOC(=O)Cn1cc(C#N)c(=O)[nH]c1=O`, for which the solubility (kinetic) was > 33.5 µg/mL.
`Brc1ccccc1-c1cnco1` came in with a kinetic solubility of 8.5 µg/mL (≈ 37.9 µM).
In the case of `Cc1ccc(S(=O)(=O)N2CCCN(C(=O)OC(C)(C)C)CC2)cc1`, the solubility (kinetic) was > 53.2 µg/mL.
The figure for `N#Cc1ccccc1OCC(=O)C1CC1` is 28.4 µg/mL (≈ 141 µM); for `O=C(/C=C/NCc1cccnc1)c1ccc(-c2ccccc2)cc1` it is 2.8 µg/mL (≈ 8.91 µM); for `CN(C)c1ccc(CCc2ccc(N)cc2)cc1` it is 21 µg/mL (≈ 87.4 µM).
Compound `Cn1c(C2CCCCC2)nc2c1c(=O)[nH]c(=O)n2Cc1ccccc1` showed a kinetic solubility of 16.7 µg/mL (≈ 49.3 µM).
The figure for `O=c1ccc2ccccc2n1Cc1cccc(F)c1` is > 38 µg/mL; for `CC(=O)Nc1ccc(S(=O)(=O)NCCc2ccccn2)cc1` it is 44 µg/mL (≈ 138 µM).
On to `O=C(Oc1ccc(OC(=O)N2CCCCC2)cc1)N1CCCCC1`, for which the kinetic solubility was 1.1 µg/mL (≈ 3.31 µM).
Then `O=C(NCc1ccco1)C(=O)c1cn(CC(=O)N2CCCC2)c2ccccc12`, with > 56.9 µg/mL; and `O=c1c2cc(-c3ccccc3)sc2nc2n1CCC2`, with 1.5 µg/mL (≈ 5.59 µM); and `CC(=O)Nc1ccc(-n2c(C)ccc2-c2ccccc2)cc1`, with 4.4 µg/mL (≈ 15.2 µM).
As to `CC(=O)c1ccc(OC(=O)CN2C(=O)c3ccccc3C2=O)cc1`, the kinetic solubility is > 48.5 µg/mL.
The figure for `CC(C)CCN(C(=S)Nc1cccc(F)c1)C(C)c1cccs1` (centres undefined) is 3.2 µg/mL (≈ 9.13 µM); for `COCCN1Cc2cccc(C(=O)NCCc3ccccc3)c2C1=O` it is 41.5 µg/mL (≈ 123 µM); for `COc1cc(CNCc2ccccc2)cc(Cl)c1OC.Cl` it is 48.2 µg/mL.
Then `CCOC(=O)Cn1cc(C(=O)C(=O)N2CCOCC2)c2ccccc21`, with > 51.7 µg/mL; and `CCCn1c(N)c(N2CCCCC2)c(=O)n(CC(=O)Nc2ccccc2C(F)(F)F)c1=O`, with 7.7 µg/mL (≈ 17 µM).
The figure for `CC(=O)Nc1ccc(CC(=O)O)cc1` is > 29 µg/mL; for `CC(NCc1ccccc1)c1ccccc1O` (centres undefined) it is 27.2 µg/mL (≈ 120 µM).
Consider `CC1(C)OC(C)(C)/C(=C\c2ccc(OCC(N)=O)cc2)C1=O`, for which the solubility (kinetic) was determined as 28 µg/mL (≈ 92.3 µM).
`Cc1ccc(-n2c(/C=C/c3ccccn3)nc3ccccc3c2=O)cc1` returned a solubility (kinetic) of 0.6 µg/mL (≈ 1.77 µM).
The figure for `Cc1cccc(N2C(=O)c3cccc4cccc(c34)C2=O)c1` is 1.5 µg/mL (≈ 5.22 µM).
The figure for `CC(O)CNCCNCc1cccs1.Cl` (centres undefined) is > 43.1 µg/mL.
Then `COC(=O)c1cc(S(=O)(=O)N2CCC(C(N)=O)CC2)oc1C`, with > 49.6 µg/mL; and `O=[N+]([O-])c1ccc(-c2cnc[nH]2)cc1`, with > 28.4 µg/mL; and `CC(=O)c1ccc(-n2cc(C#N)c(=O)[nH]c2=O)cc1`, with 34.7 µg/mL (≈ 136 µM).
Take `Fc1ccc(-c2csc(N3CCOCC3)n2)cc1`: the kinetic solubility worked out at 2.1 µg/mL (≈ 7.94 µM).
The figure for `CC1(c2ccccc2Cl)NC(=O)N(CC(=O)N2CCc3ccccc32)C1=O` (centres undefined) is 10.1 µg/mL (≈ 26.3 µM).
`CC1SCC(=NOCc2ccccc2)CS1` (centres undefined) yielded a kinetic solubility of 11.5 µg/mL (≈ 45.4 µM). This solubility kinetic and that of the compound before are within 1.5-fold of each other.
In turn, `NC(=NC(=O)c1cccc(C(F)(F)F)c1)c1ccc(C(F)(F)F)cn1` returned a solubility (kinetic) of 0.9 µg/mL (≈ 2.49 µM).
The figure for `CC1CCCC(C)N1C(=O)COc1cccc(Oc2ccccc2)c1` (centres undefined) is 20.8 µg/mL (≈ 61.3 µM); for `CC(C)Sc1nc2c(c(=O)[nH]c(=O)n2C)n1Cc1ccccc1` it is 2.8 µg/mL (≈ 8.47 µM).
Then `Cc1cccc(N=C2NC(=O)/C(=C/c3cccnc3)S2)c1`, with 2.7 µg/mL (≈ 9.14 µM).
The figure for `CCOC(=O)C1CCCN(S(=O)(=O)Cc2ccc(Cl)cc2)C1` (centres undefined) is 51 µg/mL (≈ 147 µM); for `Cc1cc2cc(CNC(=O)Cc3ccc([N+](=O)[O-])cc3)ccc2[nH]1` it is 6.9 µg/mL (≈ 21.3 µM).
Turning to `Cc1ccccc1OCC(O)CN1CCCCC1.Cl` (centres undefined), the solubility (kinetic) was > 42.9 µg/mL.
Take `CC1CCCC(C)N1C(=O)COc1ccc([N+](=O)[O-])cc1Cl` (centres undefined): the kinetic solubility is > 49 µg/mL.
Regarding `OCCNc1cc(Cl)ncn1`, the kinetic solubility is > 26 µg/mL.
On to `COC(=O)c1ccc2c(=O)[nH]c(COC(=O)c3[nH]c(C)c(C(C)=O)c3C)nc2c1`, for which the solubility (kinetic) came out at 18.1 µg/mL (≈ 45.5 µM).
Consider `Cc1cc(NC(=O)CSc2ncccc2C(=O)O)no1`, for which the kinetic solubility was > 44 µg/mL.
The figure for `CO/N=C/C=C1/N(C)c2ccccc2C1(C)C` is 19.4 µg/mL (≈ 84.2 µM); for `O=C(COC(=O)COc1ccccc1)Nc1ncc(Cl)cc1Cl` it is 47 µg/mL (≈ 132 µM).
Then `CCOC(=O)CCNC(=O)CCNC(=O)C(c1ccccc1)c1ccccc1`, with > 57.4 µg/mL; and `CN(C)c1ccc(NC(=O)CCN2C(=O)c3cccc([N+](=O)[O-])c3C2=O)cc1`, with 42.4 µg/mL (≈ 111 µM).
Then `O=C(CN1C(=O)c2ccccc2S1(=O)=O)Nc1cccc(S(=O)(=O)N2CCOCC2)c1`, with > 69.8 µg/mL; and `O=C(OCc1nc2ccsc2c(=O)[nH]1)c1ccco1`, with > 41.4 µg/mL.
Consider `O=C(Nc1cccc(C(=O)O)c1)/C(=C\c1ccco1)NC(=O)c1ccccc1`, for which the kinetic solubility stood at 51 µg/mL (≈ 136 µM).
For `OCCN(CCO)c1nc2ccccc2[nH]1`, the solubility (kinetic) is > 33.2 µg/mL.
The figure for `N#Cc1c(C(F)(F)F)cc(-c2cccs2)nc1SCC(=O)O` is 46.1 µg/mL (≈ 134 µM); for `COc1ccccc1Cn1c(C)nc2ccccc21` it is 37 µg/mL (≈ 147 µM).
Then `O=S(=O)(Cc1ccccc1)Cc1cnc(Cl)s1`, with > 43.2 µg/mL; and `O=C1Nc2ccc(Br)cc2C1(O)c1ccccc1` (centres undefined), with > 45.6 µg/mL.
With `Cc1ccc(C(=O)NCC(=O)OCC(=O)NCC(F)(F)F)cc1`, the solubility (kinetic) came to 47.1 µg/mL (≈ 142 µM).
Then `O=C(COC(=O)c1cc(S(=O)(=O)N2CCOCC2)ccc1F)NCCc1ccc(F)cc1`, with > 70.3 µg/mL; and `Cn1c(N)c(C(=O)Nc2cccc(Cl)c2)c(=O)n(C)c1=O`, with 2.5 µg/mL (≈ 8.1 µM).
Take `CN1C(=O)S/C(=C/c2ccc(OCc3cccc(C(=O)O)c3)cc2)C1=O`: the solubility (kinetic) was found to be 10.6 µg/mL (≈ 28.7 µM).
`COc1ccc(N/C(=N/c2nc(C)cc(C)n2)NC(=O)c2ccccc2)cc1`: the kinetic solubility is 0.3 µg/mL (≈ 0.799 µM).
Then `CN(c1ccccc1)S(=O)(=O)c1cccc(NC(=O)c2ccc(Cl)c([N+](=O)[O-])c2)c1`, with 1.8 µg/mL (≈ 4.04 µM); and `c1coc(CNc2nc3ccccc3s2)c1`, with 32.3 µg/mL (≈ 140 µM); and `CCc1ccccc1NC(=O)c1cc(-c2ccco2)on1`, with 3.1 µg/mL (≈ 11 µM).
Take `O=C(Nc1nc2ccccc2[nH]1)c1ccccc1OC(F)F`: the solubility (kinetic) worked out at 8.9 µg/mL (≈ 29.3 µM).
The figure for `C=CCn1cccc(C(=O)Nc2ccc(N(C)C)cc2)c1=O` is > 44.6 µg/mL.
Then `CN(c1ccc(C(=O)NC2CCCC2)cc1)S(=O)(=O)c1ccccc1`, with 48.9 µg/mL (≈ 136 µM).
In the case of `Cc1ccc(S(=O)(=O)n2c(N)nc3ccccc32)cc1`, the solubility (kinetic) stood at 2.7 µg/mL (≈ 9.4 µM).
For `COc1cccc(NC(=O)C2=COCCO2)c1`, the kinetic solubility was > 35.3 µg/mL.
In turn, `CC(C)C(=O)N=c1sc2cccc(F)c2n1C` yielded a solubility (kinetic) of 13.2 µg/mL (≈ 52.3 µM).
For the compound `O=C(NC(=S)N1CCCC1)c1cccc([N+](=O)[O-])c1`, the kinetic solubility is 39.5 µg/mL (≈ 141 µM).
With `O=C(CCNC(=O)c1ccccc1Cl)NCc1ccco1`, the kinetic solubility was > 46 µg/mL.

A word on the kinetic solubility: it is the concentration staying in solution when a stock, usually in DMSO, is diluted into the medium.

These data come from PubChem BioAssay AID1996.
